Patent US20070134185A1, “Use of dithiols in a hair-perming composition” (priority 2003, published 2007)

How the values were obtained:
[1] = Permanent waving of hair locks with reducing lotion; conditions: reducing lotion 20.83 g Compound A1 per 100 g, pH = 7, 15 minutes on curled hair, fixing with hydrogen peroxide at 8 volumes pH=3
Method: A reducing lotion is prepared:
The above lotion is applied to locks of grey hair which is 90% white. Curls are produced using curlers. The lotion is allowed to act on the curled hair for 15 minutes. The hair is rinsed with water. A conventional fixing composition based on hydrogen peroxide (hydrogen peroxide at 8 volumes, pH=3), is applied. Another rinsing is carried out. The curlers are removed.

[2] = Oxidation dyeing of permanently waved hair; conditions: compared with identical permanent waving with thioglycolic acid instead of A1, at equivalent curliness
[3] = cited from earlier work

| SMILES | curliness [1] | colour after 7.44 CRESCENDO oxidation dye on permanently waved hair [2] | solubility in water [3] |
| --- | --- | --- | --- |
| CN(C(=O)CS)N(C)C(=O)CS [Compound A1] | Good curliness | closer to that obtained on non-permanently waved hair | – |
| O=S(=O)(CCS)CCS [BMS, bis(2-mercaptoethyl)sulphone] | – | – | very sparingly soluble in water |
